Test results: patent US20250099531A1, “SYNERGISTIC COMPOSITIONS FOR ENHANCING TFEB-MEDIATED INTRACELLULAR CLEARANCE” (CELAGENEX RESEARCH (INDIA) PVT. LTD., priority 2022, published 2025)
Like-named read-outs stand apart in the source and are kept apart here.

Key:
[1] = tested on: Human Monocytes (THP-1) cell line; test: Estimation of autophagy using flow cytometer by CYTO-ID Autophagy Detection Kit; type: cell-based; conditions: THP-1 cells in autophagy, 24 h treatment, amounts as in the group description
Protocol: [table] […] To each well of the 6 well plates, 2 mL of the diluted cell suspension was added. After 24 h, 1 mL of different test concentrations and combinations of test substances were added. […] THP-1 cells were incubated with Rapamycin, and test substances in a 6-well plate. Followed by incubation, cells from different groups were harvested and measured using CYTO-ID autophagy detection kit by flow cytometer. All the reagents, standard solutions and samples will be thawed to room temperature before use. The assay was carried out as per manufacturer's instructions.

[2] = tested on: Human Monocytes (THP-1) cell line; conditions: 24 h
Protocol: The in vitro cytotoxicity was performed on Human Monocytes (THP-1) cell line to find the non-toxic concentrations of the test substances by WST-1 assay and evaluate their autophagic activity in Human Monocytes by CYTO-ID® Autophagy Detection Kit
About 10 mg of the test substances, N-(3-Aminopropyl)-1,4-butanediamine and N-α-Acetyl-N-β-alanyl-L-histidine were dissolved separately with 1 mL RPMI-1640 supplemented with 2% inactivated FBS to obtain a stock solution of 10 mg/mL concentration. Diluted the stock to desired concentrations for carrying out further studies.
THP-1 (Human Monocyte cells) was procured from NCCS, India. Stock cells were cultured in RPMI-1640 supplemented with 10% inactivated Fetal Bovine Serum (FBS), penicillin (100 IU/mL), streptomycin (100 μg/mL) and amphotericin B (5 μg/mL) in an humidified atmosphere of 5% CO2 at 37° C. until confluent. The stock cultures were grown in 25 cm^2 culture flasks and all experiments were carried out in 96 microtitre plates and 6 well plate (Tarsons India Pvt. Ltd., Kolkata, India).
The cell count was adjusted to 100,000 cells/mL using RPMI-1640 containing 10% FBS. To each well of the 96 well micro titre plate, 0.1 mL of the diluted cell suspension was added. After 24 h, 0.1 mL of different test concentrations were added in the micro titre plate. The untreated cells were maintained as cell control for comparison. The plate was then incubated at 37° C. for 24 h in 5% CO2 atmosphere, and microscopic examination was carried out and observations were noted. After 24 h, 20 μL of WST-1 added to each well and incubated for 3 h at 37° C. in 5% CO2 atmosphere. The plates were gently shaken and the absorbance was measured using a micro plate reader at a wavelength of 490 nm.

SMILES	Percentage cells expressed CYTO-ID [1]	Percentage cytotoxicity after treatment ([2]; 0.01 mg/mL)	Percentage cytotoxicity after treatment ([2]; 0.03 mg/mL)	Percentage cytotoxicity after treatment ([2]; 0.06 mg/mL)	Percentage cytotoxicity after treatment ([2]; 0.07 mg/mL)	Percentage cytotoxicity after treatment ([2]; 0.12 mg/mL)	Percentage cytotoxicity after treatment ([2]; 0.25 mg/mL)	Percentage cytotoxicity after treatment ([2]; 0.5 mg/mL)	Percentage cytotoxicity after treatment ([2]; 1 mg/mL)	Percentage cytotoxicity after treatment ([2]; 5 mg/mL)
CC(=O)NCCC(=O)N[C@@H](Cc1c[nH]cn1)C(=O)O [N-α-Acetyl-N-β-alanyl-L-histidine]	4.03%	–	–	–	–	–	–	–	–	–
CO[C@H]1C[C@@H]2CC[C@@H](C)[C@@](O)(O2)C(=O)C(=O)N2CCCC[C@H]2C(=O)O[C@H]([C@H](C)C[C@@H]2CC[C@@H](O)[C@H](OC)C2)CC(=O)[C@H](C)/C=C(\C)[C@@H](O)[C@@H](OC)C(=O)[C@H](C)C[C@H](C)/C=C/C=C/C=C/1C [Rapamycin, reference compound]	18.85%	–	–	–	–	–	–	–	–	–
NCCCCNCCCN [N-(3-Aminopropyl)-1,4-butanediamine]	7.24%	0.74 ± 0.25%	0.68 ± 2.30%	0.94 ± 0.18%	0.86 ± 2.08%	1.20 ± 0.87%	4.10 ± 1.63%	11.79 ± 3.36%	22.88 ± 2.80%	39.37 ± 1.37%
